Results: patent US8410168B2, “Methods and compositions for treating ophthalmic conditions with retinyl derivatives” (Acucela, Inc., priority 2004, dated 2013)
pKd: −log10 of the molar value. Entries after “also recorded” stand apart in the source; their conditions may differ.

How the values were obtained:
RBP = RBP (Homo sapiens, UniProt P02753); test: Competition binding assay, RBP-retinol/HPR, fluorescence; conditions: physiological temperature (37 C)
Text: Based upon these findings, we sought to further explore the mechanism(s) of retinol reduction during HPR treatment. A tenable hypothesis is that HPR may displace retinol by competing at the retinol binding site on RBP. […] Therefore, one can measure displacement of retinol from the RBP holoprotein by observing decreases in both protein (340 nm) and retinol (470 nm) fluorescence. We performed a competition binding assay using RBP-retinol/HPR concentrations which were similar to those determined from the 14 day trial at 20 mg/kg HPR described above. […] In the control assays, decreases in retinol fluorescence were associated with concomitant increases in protein fluorescence, see FIG. 3a. This effect was determined to be due to temperature effects as the dissociation constant of RBP-retinol increases (decreased affinity) with increased time at 37 C.

[1] = system: 11-cis retinol biosynthesis; test: In vitro 11-cis retinol production by bovine RPE membranes; assay type: biochemical; conditions: 10 μM HPR, p<0.05
Protocol: We examined the effects on HPR on enzymes or proteins of the visual cycle using in vitro biochemical assays. Specifically, the utilization of exogenous all-trans retinol by membranes prepared from bovine RPE was studied. […] Steady-state levels of HPR in the RPE (determined from mice which have been given 20 mg/kg HPR, i.p., daily for 28 days) range from 5-10 μM. With this in mind, we examined the effects of 10 μM HPR on production of all-trans retinyl esters and 11-cis retinol in assays similar to those described above. […] In the presence of endogenous retinoids, utilization of exogenous all-trans retinol is extremely low and 11-cis retinol is produced solely from the endogenous all-trans retinyl esters. […] Thus, the retinoic acids appear to affect at least two targets in the visual cycle. We have determined that HPR-induced reduction of 11-cis retinol biosynthesis occurs via LRAT inhibition and reduction in all-trans retinyl ester levels. In this situation, the isomerase enzyme is starved for substrate and 11-cis retinol production declines.

abcr null mutant mice = test: Lipofuscin autofluorescence in RPE and light microscopy of retina; assay type: in vivo, mouse; conditions: 28 days of HPR
Protocol: Treatment conditions are as described above.
HPR (10 mg/kg in DMSO) was administered to ABCA4−/− mice daily for a period of 28 days. Control ABCA4−/− mice received only DMSO for the same period. […] Importantly, the observed reductions in lipofuscin autofluorescence persist long after cessation of HPR therapy. HPR (10 mg/kg), or DMSO, administration was discontinued following 28 days of treatment and re-evaluated A2E and precursor levels after 2 weeks and after 4 weeks.

LRAT = target: T1, LRAT (Homo sapiens, UniProt O95237); conditions: cited from earlier work
T1 construct: host or cells: membranes from liver and small intestine
T1 sequence (O95237 1-230): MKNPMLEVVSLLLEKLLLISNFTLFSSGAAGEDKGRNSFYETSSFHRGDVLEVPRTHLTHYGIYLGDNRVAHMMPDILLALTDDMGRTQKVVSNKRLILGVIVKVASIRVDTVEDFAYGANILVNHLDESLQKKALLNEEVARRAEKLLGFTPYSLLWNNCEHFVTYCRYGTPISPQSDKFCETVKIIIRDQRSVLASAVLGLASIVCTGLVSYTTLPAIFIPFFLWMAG

CRALBP [2] = target: T2, CRALBP (Homo sapiens, UniProt P12271); test: Fluorescence quenching study of binding to CRALBP
T2 construct: made in house
Protocol: Apo-CRALBP at 0.5 μM was incubated with 1 μM of 11-cis Retinal (11cRAL), all-trans retinal (atRAL) or N-4-hydroxyphenyl retinamide (HPR) in PBS at room temperature for 1 hour. As a control, same volume of DMSO was added to the Apo-CRABLP solution. The emission spectra were measured between 290 nm to 500 nm with excitation wavelength at 280 nm and 2 nm bandpass (See FIG. 7).
Quenching of CRALBP protein fluorescence with 11-cis retinal (11cRAL). The fluorescence emission of recombinant apo-CRALBP (0.5 μM) was measured using 280 nm excitation (“no 11cRAL”).
Quenching of CRALBP protein fluorescence with HPR. The data shown were obtained using an experimental design identical to that described above. The fluorescence emission of recombinant apo-CRALBP was measured using 280 nm excitation (“no HPR”).
We performed an analysis of the dissociation constant (KD) for 11cRAL and HPR binding to apo-CRALBP (see FIG. 15). […] This calculation is based upon the ligand concentration necessary to fully quench the protein fluorescence. The data reveal that both 11cRAL and HPR quench apo-CRALBP fluorescence maximally at ˜1.5 μM. Thus, although apo-CRALBP is described as an 11 cis-specific retinoid binding protein, it appears to bind HPR as well.

abca4 null mutant mice = test: A2PE-H2 and A2E as a function of HPR dose, 28 days; assay type: in vivo, mouse; conditions: HPR daily for 28 days, several doses
Protocol: Group averages from the data shown in panels A-G of FIG. 18 in Example 25 (28 day time points) are plotted to illustrate the strong correlation between increases in serum HPR and decreases in serum retinol (see FIG. 12). Reductions in serum retinol are highly correlated with reductions in A2E and precursor compounds (A2PE-H2). A pronounced reduction in A2PE-H2 in the 2.5 mg/kg dosage group (˜47%) is observed when the serum retinol reduction is only 20%. The reason for this disproportionate reduction is related to the inherently lower ocular retinoid content in this group of 2-month old animals compared to the other groups. It is likely that if these animals had been maintained on the 2.5 mg/kg dose for a more prolonged period, a greater reduction in A2E would also be realized.
ABCA4 null mutant mice were given the indicated dose of HPR in DMSO or DMSO alone daily for 28 days (n=16 mice per treatment group). At study onset, mice in the 2.5 mg/kg group were 2 months of age, mice in the other treatment groups were 3 months of age. At the indicated times, representative mice were taken from each group (n=4) for analysis of A2E precursor compounds (see FIG. 18, A2PE-H2, panels A, C and E) and A2E (see FIG. 18, panels B, D and F). […] Sample extracts were analyzed by LC. […]

CRALBP [3] = target: T2, CRALBP; test: Size exclusion chromatography study of binding to CRALBP; conditions: 4 μM apo-CRALBP, 8 μM ligand
Protocol: Apo-CRALBP at 4 μM was incubated with 8 μM of 11cRAL, atRAL or HPR in PBS at room temperature for 1 hour. In control experiment, equivalent volume of DMSO was added to the CRALBP solution. 50 μl of each sample mixture was analyzed by BioRad Bio-Sil SEC125 Gel Filtration Column (300×7.8 mm).

T2 sequence (P12271 whole entry, species assumed): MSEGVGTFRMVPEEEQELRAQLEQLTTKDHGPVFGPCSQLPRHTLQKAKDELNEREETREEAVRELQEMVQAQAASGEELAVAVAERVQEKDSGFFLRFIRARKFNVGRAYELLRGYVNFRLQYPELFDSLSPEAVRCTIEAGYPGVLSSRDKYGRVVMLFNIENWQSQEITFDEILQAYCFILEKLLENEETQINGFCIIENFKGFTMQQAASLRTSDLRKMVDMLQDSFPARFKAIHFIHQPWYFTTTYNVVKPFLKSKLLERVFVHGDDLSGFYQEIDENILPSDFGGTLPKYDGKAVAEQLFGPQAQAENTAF

In the case of `CC1=C(/C=C/C(C)=C/C=C/C(C)=C/C(=O)Nc2ccc(O)cc2)C(C)(C)CCC1` [HPR, N-(4-hydroxyphenyl)retinamide], the “displacement of retinol from RBP-retinol holoprotein” value (RBP) was “efficiently displaces retinol”, the “effect on 11-cis retinol biosynthesis” value [1] was “statistically significant inhibition” and the “lipofuscin autofluorescence in the RPE” value (abcr null mutant mice) was “significantly reduces; also recorded: comparable to levels observed in untreated wild type mice”. The “retinal morphology by light microscopy” value (abcr null mutant mice) was “No aberrant morphology or compromise of the integrity in retinal cytostructure was observed; also recorded: no alteration of retina cytostructure or morphology”, the “LRAT activity in membranes prepared from liver and small intestine” value (LRAT) was “marked inhibition” and the “concentration of maximal quenching of apo-CRALBP fluorescence” value (CRALBP [2]) was ~1.5 µM. The “quenching of CRALBP fluorescence emission” value (CRALBP [2]; 0.5 μM apo-CRALBP, 1 μM ligand, 1 hour, vs DMSO) was “lowest”, the “concentration dependence of CRALBP protein fluorescence quenching” value (CRALBP [2]; 0.5 μM recombinant apo-CRALBP, 280 nm excitation) was “concentration dependent manner” and the pKd (CRALBP [2]; transformation of fluorescence quenching data, read-out: dissociation constant (KD) for binding to apo-CRALBP) was ~7.52. For the same molecule, the “A2PE-H2 and A2E during the study period” value (abca4 null mutant mice) was “dose-dependent reductions” and the “ligand bound to CRALBP (monomer elution peak absorbance)” value (CRALBP [3]) was “only small amount of HPR is bound to CRALBP”.
